In patent publication US11560370B1, “5-membered heteroaryl carboxamide compounds for treatment of HBV” (Assembly Biosciences, Inc., priority 2018, dated 2023):
Like-named read-outs stand apart in the source and are kept apart here.

Test system: HBV
Assay: Viral production from HepAD38 cells, viral load by qPCR of HBV core sequence
Format: cell-based
Settings: 5 days, supernatant HBV DNA by qPCR, read-out: Viral Load EC50 Activity range
Method in brief: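 HepAD38 cells in tetracycline-free medium with 2% FBS, 50,000 cells/well, treated 5 days at 37° C. with compound from 10 μM top concentration (1% DMSO final). Supernatant HBV DNA measured by TaqMan qPCR of core sequence against standards, versus DMSO wells; viability by CellTiter-Glo; EC50/CC50 by four-parameter fit.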

[1] = Hepatitis B virus, HePAD38, 120 h

Row | Structure (SMILES) | EC50 [nM] | EC50 [1] [nM]
1 | Cn1nc(C2CC(c3ccccc3)C2)c(C(=O)Nc2ccc(F)c(Cl)c2)c1N (single isomer, unassigned) [AIA-224A, 5-Amino-N-(3-chloro-4-fluorophenyl)-1-methyl-3-(3-phenylcyclobutyl)-1H-pyrazole-4-carboxamide] | < 100 | –
2 | Cn1nc(C2CC3CNC(=O)CC3C2)c(C(=O)Nc2ccc(F)c(Cl)c2)c1N (single isomer, unassigned) [AIA-033-B, 5-Amino-N-(3-chloro-4-fluorophenyl)-1-methyl-3-(3-oxooctahydro-1H-cyclopenta[c]pyridin-6-yl)-1H-pyrazole-4-carboxamide] | < 100 | –
3 | CC(C)S(=O)(=O)N1CC2CC(c3nn(C)c(N)c3C(=O)Nc3ccc(F)c(Cl)c3)CC2C1 (centres unmarked) [AIA-085, 5-Amino-N-(3-chloro-4-fluorophenyl)-3-(2-(isopropylsulfonyl)octahydrocyclopentyl[c]pyrrol-5-yl)-1-methyl-1H-pyrazole-4-carboxamide] | – | < 100
4 | Cn1cc(C(=O)Nc2ccc(F)c(Cl)c2)c(C2CC3CC(O)(CS(C)(=O)=O)CC3C2)n1 (centres unmarked) [AIA-397] | 500 to 10000 | –
5 | Cn1nc(C2CCC(c3ccc(OC(F)(F)F)cc3)C2)c(C(=O)Nc2ccc(F)c(Cl)c2)c1N (centres unmarked) [AIA-292, 5-Amino-N-(3-chloro-4-fluorophenyl)-1-methyl-3-(3-(4-(trifluoromethoxy)phenyl)cyclopentyl)-1H-pyrazole-4-carboxamide] | – | 500 to 10000
